Measurements published in patent US20140130191A1, “METHODS FOR TREATING IMMUNE-MEDIATED DISEASES OF THE NERVOUS SYSTEM ADMINISTERING A COMPOUND COMPRISING AGENTS THAT INHIBIT PROKINETICIN RECEPTORS ACTIVITY” (FONDAZIONE I.R.C.C.S. ISTITUTO NEUROLOGICO "CARLO BESTA", priority 2011, published 2014).

What was measured:
[1] = system: relapsing-remitting PLP139-151 induced EAE in SJL mice; test: Relapsing-remitting EAE in SJL mice, preventive treatment regimen; format: in vivo; conditions: for Incidence (%): PLP139-151 in CFA; for severity of the disease (in words): preventive treatment, 500 μg/kg
Description: (§1) The relapsing-remitting EAE model was obtained in female SJL mice by immunization with myelin proteolipid protein fragment 139-151 (PLP139-151) in complete Freund's adjuvant (CFA) [Pedotti et al., Nat Immunol 2001]. The chronic EAE model was obtained in C57BL/6 mice as mentioned before.
(§2) We used non-peptide prokineticin receptors antagonist drugs called PC1 and PC7 (whose chemical structure is shown in FIG. 1) to chronically treat the mice starting both from the time of induction of EAE (day 0; preventive treatment) and from the onset of the first symptoms of EAE (day 10-12, approximately; therapeutic treatment).
(§3) With reference to FIG. 4, the non-peptide prokineticin receptor 1 and 2 antagonist PCI was administered intraperitoneally to 8-12 week old female SJL mice in which EAE had been induced by immunization with PLP139-151 (100 μg/mouse) in CFA. The PC1 was given at a dose of 500 μg/kg (n=10). As a control, an equal amount of saline solution was injected (vehicle) (n=10). The treatments began at the time of induction of EAE (preventive treatment), or, more specifically, 4 hours after the induction of EAE. Ten mice per group were used. The graph represents the average daily disease score±standard error of the mean (SEM). A scale of 0 to 5 was used to attribute the score, where 0 is the absence of symptoms and 5 is death (as described in Pedotti et al, Nat Immunol 2001). *p<0.05 for two-tailed unpaired Student's t test vs Control. The results are representative of three consecutive experiments that gave similar results.
as §3, with “6,” for “4,”, “PC-7” for “PCI”, “PC7” for “PC1”, “μg /kg” for “μg/kg”, “(SEM).” for “(SEM). A scale of 0 to 5 was used to attribute the score, where 0 is the absence of symptoms and 5 is death (as described in Pedotti et al, Nat Immunol 2001). *p<0.05 for two-tailed unpaired Student's t test vs Control.”

splenocytes = test: T-cell response in splenocytes of mice with relapsing-remitting EAE, restimulated in vitro with PLP139-151; format: cell-based
Procedure: With reference to FIG. 5, 8-12 week old female SJL mice in which EAE had been induced by immunization with PLP139-151 in CFA were preventively treated (day 0) with PC1 at a dose of 500 μg/kg per day, or with vehicle as described in FIG. 4. The splenocytes were obtained 35 days after immunization with PLP139-151, and were restimulated in vitro with the antigen PLP139-151 at different concentrations or with the medium.
To assay proliferation, after 48 hours of incubation with 5% Co2 at 37° C., the cultures were loaded for 18 hours with 0.5 μCi 3H-thymidine per well. To assay cytokine production, splenocytes were restimulated in vitro with the antigen PLP139-151 at different concentrations or with the medium. The concentration of Interferon-gamma (IFN-gamma), tumour necrosis factor (TNF), Interleukine-6 (IL-6), IL-17, IL-4, and IL-10 was determined in duplicate using the ELISA technique (ELISA DuoSet, Pharmingen, CA). The results are representative of two consecutive experiments that gave similar results.

[2] = system: relapsing-remitting PLP139-151 induced EAE in SJL mice; test: Relapsing-remitting EAE in SJL mice, therapeutic treatment regimen; format: in vivo
Description: as §1, §2
With reference to FIG. 7, the non-peptide prokineticin receptor 1 and 2 antagonist PC-7 was administered intraperitoneally to 8-12 week old female SJL mice in which EAE had been induced by immunization with PLP139-151 (100 μg/mouse) in CFA. The PC-7 was given at a dose of 500 μg/kg (n=10). As a control, an equal amount of saline solution was injected (control) (n=10). The treatments began on the appearance of the first symptoms of the disease (Day 11). Ten mice per group were used. The graph represents the average daily disease score±standard error of the mean (SEM). The results are representative of three consecutive experiments that gave similar results.

[3] = system: chronic MOG35-55 induced EAE in C57B1/6 mice; test: Chronic EAE in C57B1/6 mice, preventive treatment regimen; format: in vivo
Description: (§4) In the study conducted we verified the expression of PK-2 and its receptors PK-R1 and PK-R2 in the experimental model of chronic EAE, an experimental model of MS. The chronic EAE model was obtained in C57B1/6 mice by immunization with myelin oligodendrocyte glycoprotein peptide fragment 35-55 (MOG35-55) and PTX (Pertussis toxin) [Pedotti et al., PNAS 2003]. During chronic EAE, we observed an increase of mRNA expression of PK-2 by lymph node cells and purified CD4+ T cells in C57B1/6 mice during the disease. This increase of mRNA expression started before the onset of the disease and is less significant after its onset (FIG. 2). We observed also an important increase of the levels of the protein PK-2 in the serum of mice with MOG35-55 induced EAE (FIG. 3). This increase of PK-2 was accompanied by a dramatic reduction of PK-R2 expression in lymph node cells and CD4+T cells. […] Thus, the couple PK-2/PK-R1 seemed to play an important role during EAE, the experimental model of MS.
as §2
With reference to FIG. 9, the non-peptide prokineticin receptor 1 and 2 antagonist PC7 was administered intraperitoneally to 8-12 week old female C57B1/6 mice in which chronic EAE had been induced by immunization with MOG35-55 (100 μg/mouse) and PTX (400 ng/mouse). The PC-7 was given at a dose of 500 μg/kg (n=10). As a control, an equal amount of saline solution was injected (vehicle) (n=10). The treatments began at the time of induction of EAE (preventive treatment), or, more specifically, 4 hours after the induction of EAE. Ten mice per group were used. The graph represents the average daily disease score±standard error of the mean (SEM). The results are representative of three consecutive experiments that gave similar results.

[4] = system: chronic MOG35-55 induced EAE in C57B1/6 mice; test: Chronic EAE in C57B1/6 mice, therapeutic treatment regimen; format: in vivo
Description: as §4, §2
With reference to FIG. 10, the non-peptide prokineticin receptor 1 and 2 antagonist PC-7 was administered intraperitoneally to 8-12 week old female C57B1/6 mice in which chronic EAE had been induced by immunization with MOG35-55 (100 μg/mouse) and PTX (400 ng/mouse). The PC-7 was given at a dose of 500 μg /kg (n=10). As a control, an equal amount of saline solution was injected (vehicle) (n=10). The treatments began on the onset of the first symptoms of the disease (day 12). Ten mice per group were used. The graph represents the average daily disease score±standard error of the mean (SEM). The results are representative of two consecutive experiments that gave similar results.

DLN cells [5] = test: T-cell response in draining lymph node cells of mice with relapsing-remitting EAE, restimulated in vitro with PLP139-151; format: cell-based; conditions: restimulated with PLP139-151, vs vehicle
Procedure: With reference to FIG. 8, 8-12 week old female SJL mice in which EAE had been induced by immunization with PLP139-151 in CFA were preventively treated (day 0) with PC-7 at a dose of 500 μg/kg per day or with vehicle as described in the previous experiments. The draining lymph nodes (DLN, inguinal and axillary) were obtained 7 days after immunization with PLP139-151. To assay proliferation, the DLN cells were restimulated in vitro with the antigen PLP139-151 at different concentrations, with Concanavalin A (2 μg /ml), or with the medium.
(§5) After 48 hours of incubation with 5% Co2 at 37° C., the cultures were loaded for 18 hours with 0.5 μCi 3H-thymidine per well.
To assay cytokine production, DLN cells were restimulated in vitro with the antigen PLP139-151 at different concentrations or with the medium. Data are expressed as mean cpm±SEM, ng/ml±SEM, or pg/ml±SEM.

DLN cells [6] = test: T-cell response in draining lymph node cells of mice with chronic EAE, restimulated in vitro with MOG35-55; format: cell-based; conditions: restimulated with MOG35-55, vs vehicle
Procedure: With reference to FIG. 11, 8-12 week old female C57B1/6 mice in which chronic EAE had been induced by immunization with MOG35-55 were preventively treated (day 0) with PC-7 at a dose of 500 μg/kg per day or with a vehicle as described in the previous experiments. The draining lymph nodes (DLN, inguinal and axillary) were obtained 10 days after immunization with MOG35-55. To assay proliferation, the DLN cells were restimulated in vitro with MOG35-55 at different concentrations, with Concanavalin A (2 μg/ml), or with the medium. Data are expressed as mean cpm±SEM, ng/ml±SEM, or pg/ml±SEM.
as §5
To assay cytokine production, DLN cells were restimulated in vitro with MOG35-55 at different concentrations or with the medium.

[7] = SJL mice, 500 μg/kg i.p., preventive, Table 1
[8] = splenocytes, restimulated with PLP139-151, ELISA, vs vehicle
[9] = SJL mice, 500 μg/kg i.p., preventive, Table 2
[10] = SJL mice, 500 μg/kg i.p. from first symptoms (Day 11), therapeutic
[11] = C57B1/6 mice, 500 μg/kg i.p., preventive
[12] = C57B1/6 mice, 500 μg/kg i.p. from first symptoms (day 12), therapeutic
[13] = DLN cells, relapsing-remitting EAE

## CCc1ccc(Cn2c(=O)nc(NCCNC(=N)N)n(Cc3ccc(OC)cc3)c2=O)cc1 [PC1]
[1]; [7]
  Cumulative disease score: 24.8 ± 9.0 *
  Onset of disease (Day): 12.4 ± 1.0 * Day
[1]; SJL mice, 500 μg/kg i.p., preventive, score scale 0 to 5, Table 1
  Peak of disease Severity: 1.7 ± 0.4 *
[1]; SJL mice, 500 μg/kg intraperitoneally from induction of EAE (preventive), Table 1
  Incidence (%): 70% (7/10)
[1]; relapsing-remitting EAE
  severity of the disease (in words): reduction in the severity of the disease
[1]; relapsing-remitting EAE, treated from the time of induction of EAE
  onset of the disease (in words): delay in the onset of the disease
splenocytes; splenocytes 35 days after immunization, mice treated 500 μg/kg per day preventively, restimulated with PLP139-151, vs vehicle
  peptide-specific T cells proliferation: reduction
splenocytes; [8]
  production of IFN-gamma: reduction
  production of IL-4: increasing
  production of TNF: reduction

## COc1ccc(Cn2c(NCCNC(=N)N)nc(=O)n(Cc3ccc(F)cc3)c2=O)cc1 [PC7]
[1]; [9]
  Cumulative disease score: 21.2 ± 5.1 *
  Onset of disease (Day): 11.4 ± 0.1 * Day
  Peak in disease Severity: 2.2 ± 0.3 *
[1]; SJL mice, 500 μg/kg i.p. from induction of EAE (preventive), Table 2
  Incidence (%): 90% (9/10)
[1]; relapsing-remitting EAE
  severity of the disease (in words): significantly reduces the severity of the disease
[2]; [10]
  Cumulative disease score: 42.3 ± 7.5
  Incidence (%): 100% (10/10)
  Peak in disease Severity: 2.6 ± 0.3
[2]; relapsing-remitting EAE, therapeutic treatment, 500 μg/kg
  severity of the disease (in words): significantly reduces the severity of the disease
[3]; [11]
  Cumulative disease score: 41.1 ± 11.8
  Onset of disease: 16.8 ± 1.7 days
  Peak in disease Severity: 2.5 ± 0.5
[3]; C57B1/6 mice, MOG35-55 and PTX, 500 μg/kg i.p. from induction of EAE (preventive)
  Incidence (%): 90% (9/10)
[3]; chronic EAE, preventive treatment
  severity of the disease (in words): significant reduction in the severity of the disease
[4]; [12]
  Cumulative disease score: 50.9 ± 11.8
  Incidence (%): 100% (10/10)
  Peak in disease Severity: 3.3 ± 0.3
[4]; chronic EAE, therapeutic treatment, 500 μg/Kg
  severity of the disease (in words): significant reduction in the severity of the disease
DLN cells [5]; DLN cells 7 days after immunization, mice treated 500 μg/kg per day preventively
  proliferation of lymph node cells: reduced proliferation
DLN cells [5]; [13]
  levels of IL-17A: slight reduction
  levels of interleukin IL-6: increase
  levels of interleukin IL-10: increase
  production of IFN: significantly lower
  production of TNF: significantly lower
DLN cells [6]; DLN cells 10 days after immunization, mice treated 500 μg/kg per day preventively
  peptide-specific T cells proliferation: reduction
DLN cells [6]; DLN cells, chronic EAE
  production of IFN-gamma: reduction
  production of IL-10: increasing
  production of IL-17: reduction
  production of TNF: reduction
